Assay results reported in patent US8951508B2, “Compound” (DSM IP Assets B.V., priority 2009, dated 2015).

Key:
[1] = Comparative solubility of BMDBM in 1:1 C12-15 alkyl benzoate/UV-filter mixtures, HPLC of supernatant after 1 month at RT; conditions: for effect on solubility of BMDBM in C12-15 alkyl benzoate: conclusion in words
Description: The solubility of BMDBM in a 1:1 (w/w) mixture of C12-15 alkyl benzoate and a polymeric, respectively a solid UV-filter (i.e. Polysilicone-15 (P-15), HY-B1, HY-B2, HY-AB, BEMT or Ethylhexyltriazone (EHT)) was determined by mixing 200 mg of BMDBM with 1000 mg of the 1:1 mixture and measuring the BMDBM concentration of the supernatant by HPLC after a storage period of 1 month at RT. Where necessary the mixture was centrifuged in order to obtain a clear supernatant.

[2] = Reduction of solvent necessary to dissolve solid UV-filter; type: physicochemical
[3] = e.g. C12-15 alkyl benzoate or diisopropyl sebaceate; typical value; cited from earlier work

SMILES | Solubility of BMDBM in C12-15 alkyl benzoate/UV-filter 1:1 ([1]; 200 mg BMDBM in 1000 mg 1:1 mixture, 1 month at RT, label = UV-filter in mixture) [wt.-%] | Solubility of BMDBM: Δ solubility ([1]; 1:1 mixture versus C12-15 alkyl benzoate, label = UV-filter in mixture) [wt.-%] | effect on solubility of BMDBM in C12-15 alkyl benzoate [1] | Solubility of BMDBM: Δ solubility related to cosmetic solvent ([1]; label = UV-filter in mixture) [wt.-%] | Solubility of BMDBM in C12-15 alkyl benzoate ([1]; reference value without UV-filter, repeated per column) [wt.-%] | amount of 1:1 (w/w) mixture of PG-UVB1 and diisopropyl sebacate needed to dissolve 0.5 g BMDBM [2] [g] | amount of 1:1 (w/w) mixture of PG-UVB2 and C12-15 alkyl benzoate necessary to dissolve 0.5 g BMDBM [2] [g] | amount of C12-15 alkyl benzoate necessary to solubilize 0.5 g BMDBM [2] [g] | amount of diisopropyl sebacate necessary to solubilize 0.5 g BMDBM [2] [g] | reduction of the cosmetic solvent necessary to dissolve BMDBM ([2]; 1:1 (w/w) PG-UVB1/diisopropyl sebacate versus diisopropyl sebacate) [%] | reduction of the cosmetic solvent necessary to dissolve BMDBM ([2]; 1:1 (w/w) PG-UVB2/C12-15 alkyl benzoate versus C12-15 alkyl benzoate) [%] | solubility in the conventional cosmetic oils [3]
CCCCC(CC)COc1ccc(-c2nc(-c3ccc(OC)cc3)nc(-c3ccc(OCC(CC)CCCC)cc3O)n2)c(O)c1 (stereo not shown) [BEMT, bis-ethylhexyloxyphenol methoxyphenyl triazine] | 3 | −11 | neither be enhanced | −4 |  |  |  |  |  |  |  | 
COc1ccc(C(=O)CC(=O)c2ccc(C(C)(C)C)cc2)cc1 [BMDBM, butyl methoxydibenzoylmethane] |  |  |  |  | 14 | 1.4 | 1.5 | 3.0 | 2.0 | 65 | 75 | less than 20%
CCCCC(CC)COC(=O)c1ccc(Nc2nc(Nc3ccc(C(=O)OCC(CC)CCCC)cc3)nc(Nc3ccc(C(=O)OCC(CC)CCCC)cc3)n2)cc1 (stereo not shown) [EHT, Ethylhexyltriazone] |  |  | neither be enhanced |  |  |  |  |  |  |  |  | 
